Experimental data published in patent US20250375465A1, “METHODS FOR AFFECTING TISSUE-RESIDENT T CELLS” (THE TRUSTEES OF THE UNIVERSITY OF PENNSYLVANIA, priority 2024, published 2025).
Entries after “also recorded” stand apart in the source; their conditions may differ.

What was measured:
[1] = test system: TRM isolated from healthy human skin; test: Viability of skin TRM versus blood T cells after GSPT1 degrader treatment (FIG. 10D); assay type: cell-based; conditions: 72 hours of treatment, n=6
Procedure: (§1) Given that GSPT1-degrading small-molecules are already advancing through early-phase trials for cancer, it was tested whether targeting GSPT1 could selectively affect TRM in vitro. TRM were isolated from healthy human skin (n=6) and their sensitivity was to the GSPT1-degrading drug CC-90009 with that of human blood T cells. […] In a similar study, another small molecule GSPT1 degrader, MRT-2359, was used to treat peripheral blood T cells from normal human donors for 24 hours in vitro at various concentrations.

primary human T cells = test: Kill curve in primary human (circulating) T cells, celltiter glow viability assay (FIG. 6C); assay type: cell-based; conditions: for apoptosis / killing of primary human T cells: FIG. 6C, 3 days incubation
Procedure: (Data extracted from J Clin Invest. 2022; 132 (16): e153514). FIG. 6C: in contrast to the AML cells, circulating T cells required about 100-fold higher dose of the GSPT-1 degrader to be depleted. The GSPT-1 degrader used in FIG. 6C is C90009, the same drug as in FIGS. 6A-6B. Blue curve: kill curve with MRT-2359. Primary human T cells were incubated with indicated doses for 3 days followed by viability quantification using a standard celltiter glow assay. Survival was quantified relative to T cells from the same donor treated with DMSO.

GSPT1 = molecular target: T1, GSPT1 (Homo sapiens, UniProt P15170+Q96SW2); test: Western blot of GSPT1 protein in primary human T cells after degrader treatment (FIGS. 13A-13B); assay type: cell-based; conditions: primary human peripheral blood T cells, 24 hours in vitro, compared to DMSO control
T1 construct: GSPT1 protein in primary human T cells isolated from peripheral blood; endogenous in cells; host or cells: primary human T cells from peripheral blood of normal donors
T1 sequence (P15170 whole entry): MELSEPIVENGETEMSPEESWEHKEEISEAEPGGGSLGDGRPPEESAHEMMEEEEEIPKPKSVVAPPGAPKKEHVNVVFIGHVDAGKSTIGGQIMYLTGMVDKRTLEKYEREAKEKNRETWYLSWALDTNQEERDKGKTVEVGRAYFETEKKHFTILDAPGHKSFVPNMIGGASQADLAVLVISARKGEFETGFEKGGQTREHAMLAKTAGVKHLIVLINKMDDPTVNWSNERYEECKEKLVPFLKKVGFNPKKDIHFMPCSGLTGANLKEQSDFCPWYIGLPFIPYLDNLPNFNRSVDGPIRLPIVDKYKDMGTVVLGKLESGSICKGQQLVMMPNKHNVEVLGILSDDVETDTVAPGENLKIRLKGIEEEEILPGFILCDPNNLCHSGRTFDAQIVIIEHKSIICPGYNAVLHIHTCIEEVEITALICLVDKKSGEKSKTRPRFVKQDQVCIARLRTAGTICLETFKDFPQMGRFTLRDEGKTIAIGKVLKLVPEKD
T1 sequence (Q96SW2 whole entry): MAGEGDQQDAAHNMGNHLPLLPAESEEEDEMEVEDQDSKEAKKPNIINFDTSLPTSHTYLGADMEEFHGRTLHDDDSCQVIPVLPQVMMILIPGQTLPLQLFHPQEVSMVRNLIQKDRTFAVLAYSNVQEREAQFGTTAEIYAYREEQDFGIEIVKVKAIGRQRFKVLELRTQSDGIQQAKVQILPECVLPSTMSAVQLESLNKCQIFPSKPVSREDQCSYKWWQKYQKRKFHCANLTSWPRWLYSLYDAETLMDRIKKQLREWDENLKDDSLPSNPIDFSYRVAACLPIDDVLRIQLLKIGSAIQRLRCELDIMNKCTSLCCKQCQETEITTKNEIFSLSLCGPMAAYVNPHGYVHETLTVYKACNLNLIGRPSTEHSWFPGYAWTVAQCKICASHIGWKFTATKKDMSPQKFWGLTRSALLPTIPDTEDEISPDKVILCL
T1 sequence (Q16531 whole entry partner): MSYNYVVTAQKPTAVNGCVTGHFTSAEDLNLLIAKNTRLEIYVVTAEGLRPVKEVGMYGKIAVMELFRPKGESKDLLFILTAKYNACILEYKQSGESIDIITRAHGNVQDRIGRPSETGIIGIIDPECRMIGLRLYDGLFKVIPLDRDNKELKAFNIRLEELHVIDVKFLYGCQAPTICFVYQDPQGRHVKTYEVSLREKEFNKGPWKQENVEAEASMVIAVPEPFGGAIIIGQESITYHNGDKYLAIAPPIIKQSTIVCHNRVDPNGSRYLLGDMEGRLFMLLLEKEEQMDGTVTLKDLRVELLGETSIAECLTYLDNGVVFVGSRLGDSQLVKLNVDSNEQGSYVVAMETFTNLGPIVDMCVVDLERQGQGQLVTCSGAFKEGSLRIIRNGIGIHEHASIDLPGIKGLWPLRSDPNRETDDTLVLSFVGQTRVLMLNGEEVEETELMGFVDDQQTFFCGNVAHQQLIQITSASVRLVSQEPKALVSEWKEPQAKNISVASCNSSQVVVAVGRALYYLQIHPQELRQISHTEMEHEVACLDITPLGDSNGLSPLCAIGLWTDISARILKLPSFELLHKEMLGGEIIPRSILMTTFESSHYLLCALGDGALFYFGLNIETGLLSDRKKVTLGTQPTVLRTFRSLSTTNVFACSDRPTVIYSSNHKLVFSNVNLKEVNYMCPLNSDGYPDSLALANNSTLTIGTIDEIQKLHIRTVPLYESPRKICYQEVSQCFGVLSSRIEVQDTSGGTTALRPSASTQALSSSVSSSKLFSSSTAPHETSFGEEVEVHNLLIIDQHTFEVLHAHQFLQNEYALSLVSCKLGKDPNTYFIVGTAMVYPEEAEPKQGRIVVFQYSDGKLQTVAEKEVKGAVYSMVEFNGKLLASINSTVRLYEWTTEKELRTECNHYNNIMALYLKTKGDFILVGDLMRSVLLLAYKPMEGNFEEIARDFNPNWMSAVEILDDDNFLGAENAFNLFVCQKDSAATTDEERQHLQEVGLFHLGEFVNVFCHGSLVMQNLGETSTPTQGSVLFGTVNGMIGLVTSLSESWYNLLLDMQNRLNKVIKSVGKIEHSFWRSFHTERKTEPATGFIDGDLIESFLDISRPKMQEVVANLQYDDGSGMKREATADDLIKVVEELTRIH
Procedure: FIGS. 13A-13B illustrate degradation of GSPT1 in primary human T cells using CC-90009 and MRT-2359. FIG. 13A is a Western blot analysis of GSPT1 protein in primary human T cells isolated from peripheral blood. T cells were treated with indicated concentrations of GSPT1 degrader for 24 hours in vitro. GSPT1 protein was detected with a monoclonal anti-GSPT1 antibody. FIG. 13B is a graph quantifying GSPT1 protein remaining after degrader treatment as shown in FIG. 13A compared to a DMSO negative control.
as §1

primary leukemia cells = conditions: FIG. 6B; data extracted from J Clin Invest. 2022; 132 (16): e153514; cited from earlier work
[2] = test system: acute myeloid leukemia (AML) cells; conditions: FIG. 6A; data extracted from J Clin Invest. 2022; 132 (16): e153514; cited from earlier work

| Structure (SMILES) | viability of skin TRM compared with circulating T cells [1] | dosage required for same level of apoptosis in primary (circulating) T cells versus cells of FIGS. 6A-6B (primary human T cells; FIG. 6C versus FIGS. 6A-6B) | apoptosis / killing of primary human T cells (primary human T cells) | dose required to deplete circulating T cells relative to AML cells (primary human T cells; primary human T cells incubated 3 days, survival relative to DMSO, compared with FIGS. 6A-6B) | GSPT1 protein remaining after degrader treatment (GSPT1) | depletion / apoptosis of primary leukemia cells (primary leukemia cells) | depletion / apoptosis of AML cells [2] |
| --- | --- | --- | --- | --- | --- | --- | --- |
| O=C1CCC(N2Cc3cc(CNC(=O)C(F)(F)c4ccc(Cl)cc4)ccc3C2=O)C(=O)N1 (stereo not drawn) [CC-90009] | reduced viability | dramatically increased | does apoptosis | about 100 fold | significant dose-dependent loss of GSPT1 protein; also recorded: dose-dependent downregulation of GSPT1 protein | dose-dependent apoptosis; also recorded: dose-dependent depletion | dose-dependent apoptosis; also recorded: dose-dependent depletion |
| O=C1CCC(N2Cc3ccc(COC(=O)Nc4cc(OC(F)(F)F)ccc4F)cc3C2=O)C(=O)N1 (stereo not drawn) [MRT-2359] | – | – | does apoptosis | – | significant dose-dependent loss of GSPT1 protein; also recorded: dose-dependent downregulation of GSPT1 protein | – | – |
